Test [1] concerns the target M. tuberculosis topoI (MttopoI) (Mycobacterium tuberculosis, UniProt P9WG49). In words: DNA relaxation inhibition assay. The format is biochemical. Particulars: assay conditions for MttopoI not stated; data not shown.
The target of test [2] is T1, Escherichia coli topoisomerase I (EctopoI) (Escherichia coli, UniProt P06612).
T1 sequence (P06612 1-865): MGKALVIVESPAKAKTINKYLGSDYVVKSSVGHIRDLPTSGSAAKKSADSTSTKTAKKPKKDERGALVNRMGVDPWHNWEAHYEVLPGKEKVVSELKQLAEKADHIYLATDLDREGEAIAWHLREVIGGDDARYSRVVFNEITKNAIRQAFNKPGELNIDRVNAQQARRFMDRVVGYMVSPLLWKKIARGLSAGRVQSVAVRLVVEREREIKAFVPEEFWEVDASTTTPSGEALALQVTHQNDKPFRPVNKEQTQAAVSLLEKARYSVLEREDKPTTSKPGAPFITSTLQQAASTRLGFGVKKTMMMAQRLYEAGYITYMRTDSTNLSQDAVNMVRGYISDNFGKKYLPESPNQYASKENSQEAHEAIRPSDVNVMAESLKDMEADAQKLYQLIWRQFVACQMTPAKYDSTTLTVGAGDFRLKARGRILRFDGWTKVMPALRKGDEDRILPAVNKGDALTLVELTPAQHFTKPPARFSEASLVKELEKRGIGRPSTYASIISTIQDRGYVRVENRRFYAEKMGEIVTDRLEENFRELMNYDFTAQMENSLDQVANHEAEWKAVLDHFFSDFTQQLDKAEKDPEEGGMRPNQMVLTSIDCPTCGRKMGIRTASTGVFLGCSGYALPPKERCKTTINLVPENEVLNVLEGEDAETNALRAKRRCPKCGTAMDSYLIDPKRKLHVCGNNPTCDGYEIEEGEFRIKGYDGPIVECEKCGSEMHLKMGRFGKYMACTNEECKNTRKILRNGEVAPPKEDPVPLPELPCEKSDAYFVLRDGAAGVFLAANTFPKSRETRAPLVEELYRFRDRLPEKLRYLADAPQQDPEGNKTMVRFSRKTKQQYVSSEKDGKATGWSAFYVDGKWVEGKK
In words: SPR. Conditions: PBS-P, pH 7.4, 1% DMSO; no DNA; average of three experimental replicates. The test is classed as binding.

Structures are written as SMILES.

These results are taken from article PMC7133791 (ChemMedChem, 2020).

M. tuberculosis topoI (MttopoI), sequence (P9WG49 whole entry): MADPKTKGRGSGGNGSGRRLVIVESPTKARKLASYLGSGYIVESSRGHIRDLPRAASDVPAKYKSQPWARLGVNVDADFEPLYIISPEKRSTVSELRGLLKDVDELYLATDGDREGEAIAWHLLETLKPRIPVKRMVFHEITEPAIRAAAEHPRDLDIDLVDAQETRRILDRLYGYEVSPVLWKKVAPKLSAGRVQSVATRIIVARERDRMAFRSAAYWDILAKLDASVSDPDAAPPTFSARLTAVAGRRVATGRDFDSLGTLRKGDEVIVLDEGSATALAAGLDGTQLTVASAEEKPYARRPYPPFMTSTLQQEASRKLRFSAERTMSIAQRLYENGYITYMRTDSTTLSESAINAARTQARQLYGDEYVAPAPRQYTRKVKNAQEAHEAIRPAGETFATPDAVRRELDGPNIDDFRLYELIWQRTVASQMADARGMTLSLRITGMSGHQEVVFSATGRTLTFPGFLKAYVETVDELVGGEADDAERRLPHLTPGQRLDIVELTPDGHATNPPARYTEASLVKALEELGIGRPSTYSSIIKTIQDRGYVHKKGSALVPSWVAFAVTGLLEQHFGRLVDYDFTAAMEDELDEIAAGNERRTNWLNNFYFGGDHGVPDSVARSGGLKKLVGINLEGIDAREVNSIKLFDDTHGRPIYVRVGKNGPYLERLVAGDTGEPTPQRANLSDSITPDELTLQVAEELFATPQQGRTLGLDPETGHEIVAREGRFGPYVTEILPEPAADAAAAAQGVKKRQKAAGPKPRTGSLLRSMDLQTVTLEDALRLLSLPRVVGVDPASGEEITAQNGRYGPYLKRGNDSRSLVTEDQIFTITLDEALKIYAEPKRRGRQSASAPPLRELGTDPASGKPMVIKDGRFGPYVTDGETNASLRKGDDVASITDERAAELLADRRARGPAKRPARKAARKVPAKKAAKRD

Consider `O=C(Nc1ccc(Sc2ccc(N=Nc3c(O)c(S(=O)(=O)O)cc4cc(S(=O)(=O)O)ccc34)cc2)cc1)c1ccc(N=Nc2c(O)ccc3c(S(=O)(=O)O)cc(S(=O)(=O)O)cc23)cc1` [NSC76027], for which the IC50 (as a rule, the concentration needed to halve the response being measured) in test [1] was around 3 µM. In addition, the Kd (in general, the concentration at which binding is half-saturated) in test [2] was 0.079 ± 0.008 µM.
